Results as given in patent publication US11478471B2, “Methods and compositions for treating diabetes, metabolic syndrome and other conditions” (priority 2005, dated 2022).
Values after ≈ are worked out from the molar mass of the structure shown.

Experiments:
cholesterol levels = assay: Cholesterol levels in rats after oral dosing; format: in vivo, Sprague Dawley rats; conditions: for Cholesterol Levels (mean ± SEM): single oral 200 mg/kg
Experimental: (§1) The rats were maintained as described above; the drugs were suspended in olive oil, and each rat was dosed once via gastric tube to achieve a dose of 200 mg/kg. All of the rats were dosed at a specific time so that all terminations occurred between 6 and 7 pm. […] Following sacrifice, plasma was prepared, and the concentration of corticosterone in the plasma was determined by ELISA. In the same plasma samples, total cholesterol levels were also determined.

[1] = 28 day GLP toxicity study in dogs; conditions: dogs, 40 mg/kg/day, led to cessation of dosing after 9 days
Candida kefyr = assay: Antifungal MIC; format: cell-based; conditions: Kluyveromyces marxianus, DSM11954; DSM strain 11954, 48 h
Candida albicans = assay: Antifungal MIC; format: cell-based
Candida tropicalis = assay: Antifungal MIC; format: cell-based
Saccharomyces cerevisiae = assay: Antifungal MIC; format: cell-based; conditions: DSM01333, DSM strain 01333, 48 h
Cryptococcus neoformans = assay: Antifungal MIC; format: cell-based
testosterone levels = assay: Testosterone levels in rats after oral dosing; format: in vivo, Sprague Dawley rats; conditions: for Testosterone levels (mean ± SEM): 4 h after gavage
Excerpt: There was a single control group (dosed with vehicle).
The means of the vehicle treated groups are used as the time zero control point.

Candida parapsilosis = assay: Antifungal MIC; format: cell-based; conditions: Lodderomyces parapsilosis
Candida glabrata = assay: Antifungal MIC; format: cell-based; conditions: Nakaseomyces glabratus
plasma corticosterone = assay: Plasma corticosterone in rats after oral dosing (ELISA); format: in vivo, Sprague Dawley rats; conditions: for Corticosteroid Levels (mean ± SEM): 4 h after gavage
Experimental: To generate the results shown in FIG. 1, five groups (eight per group) of rats were used. The rats were maintained on a 14/10 hour light/dark cycle and allowed free access to food and water. Each rat was dosed (200 mg drug/kg body weight) via a gastric tube. […] All of the rats were dosed between 2.00 and 3.00 pm and were sacrificed four hours later (between 6.00 and 7.00 pm). Plasma was prepared and the concentration of corticosterone determined by an enzyme linked immuno assay (ELISA). In rats, the predominant active glucocorticoid is corticosterone; in humans, the predominant active glucucorticoid is the closely related molecule cortisol.
The rats were maintained and dosed as described above. Plasma was prepared and the concentration of corticosterone in the plasma determined by ELISA.
as §1
In the Table, corticosterone levels (mean±SEM; ng/mL) were determined four hours after oral gavage of the indicated drug (N=10/group). There was a single control group (dosed with vehicle).
Corticosterone levels (mean±SEM; ng/mL) were determined at the indicated times after oral gavage of the indicated drug at 200 mg/kg. […] The means of the vehicle treated groups are used as the time zero control point.

Candida guilliermondii = assay: Antifungal MIC; format: cell-based; conditions: Meyerozyma guilliermondii, DSM11947; DSM strain 11947, 48 h

## CC(=O)N1CCN(c2ccc(OCC3COC(Cn4ccnc4)(c4ccc(Cl)cc4Cl)O3)cc2)CC1 (racemic) [Racemic ketoconazole, 1-acetyl-4-[4-[[2-(2,4-dichlorophenyl)-2-[(1H-imidazol-1-yl)-methyl]-1,3-dioxolan-4-yl]methoxy]phenyl]piperazine]
Cholesterol levels; 200 mg/kg oral, up to 24 hours
  efficacy at lowering cholesterol: intermediate between the two enantiomers
Cholesterol levels; 4 h
  Cholesterol Levels (mean ± SEM): 81.2 ± 3.9 mg/dL
Cholesterol levels; 8 h
  Cholesterol Levels (mean ± SEM): 73.5 ± 2.3 mg/dL
Cholesterol levels; 12 h
  Cholesterol Levels (mean ± SEM): 69.6 ± 2.3 mg/dL
Cholesterol levels; 16 h
  Cholesterol Levels (mean ± SEM): 69.6 ± 3.1 mg/dL
[1]
  body weight losses: up to 17.3%
Candida kefyr
  MIC: 0.03 µg/mL (≈ 0.0565 µM)
Candida albicans; 48 h
  MIC: < 0.015 µg/mL
Candida albicans; DSM11225, 48 h
  MIC: < 0.015 µg/mL
Candida albicans; DSM11943, 48 h
  MIC: < 0.015 µg/mL
Candida albicans; DSM11944, 48 h
  MIC: < 0.015 µg/mL
Candida albicans; DSM11945, 48 h
  MIC: 0.03 µg/mL (≈ 0.0565 µM)
Candida albicans; DSM11948, 48 h
  MIC: < 0.015 µg/mL
Candida albicans; DSM11949, 48 h
  MIC: 0.125 µg/mL (≈ 0.235 µM)
Candida tropicalis; DSM11951, 48 h
  MIC: 0.125 µg/mL (≈ 0.235 µM)
Candida tropicalis; DSM11952, 48 h
  MIC: 4 µg/mL (≈ 7.53 µM)
Candida tropicalis; DSM11953, 48 h
  MIC: 0.06 µg/mL (≈ 0.113 µM)
Saccharomyces cerevisiae
  MIC: 0.25 µg/mL (≈ 0.47 µM)
Cryptococcus neoformans; DSM11959, DSM strain 11959, 48 h
  MIC: 0.06 µg/mL (≈ 0.113 µM)
Cryptococcus neoformans; DSM11960, DSM strain 11960, 48 h
  MIC: 0.125 µg/mL (≈ 0.235 µM)
Testosterone levels; single oral 50 mg/kg
  Testosterone levels (mean ± SEM): 2.7 ± 0.6 nmol/L
Testosterone levels; single oral 100 mg/kg
  Testosterone levels (mean ± SEM): 1.7 ± 0.5 nmol/L
Testosterone levels; single oral 200 mg/kg, 4 h
  Testosterone levels (mean ± SEM), time course: 1.6 ± 0.6 nmol/L
Testosterone levels; single oral 200 mg/kg
  Testosterone levels (mean ± SEM): 0.4 ± 0.2 nmol/L
Testosterone levels; single oral 200 mg/kg, 8 h
  Testosterone levels (mean ± SEM), time course: 8.0 ± 1.0 nmol/L
Testosterone levels; single oral 200 mg/kg, 12 h
  Testosterone levels (mean ± SEM), time course: 4.6 ± 0.6 nmol/L
Testosterone levels; single oral 200 mg/kg, 16 h
  Testosterone levels (mean ± SEM), time course: 3.8 ± 0.5 nmol/L
Testosterone levels; single oral 200 mg/kg, 20 h
  Testosterone levels (mean ± SEM), time course: 5.6 ± 0.8 nmol/L
Testosterone levels; single oral 200 mg/kg, 24 h
  Testosterone levels (mean ± SEM), time course: 5.9 ± 0.5 nmol/L
Testosterone levels; single oral 400 mg/kg
  Testosterone levels (mean ± SEM): 0.4 ± 0.2 nmol/L
Testosterone levels; single oral 600 mg/kg
  Testosterone levels (mean ± SEM): 0.8 ± 0.1 nmol/L
Candida parapsilosis; DSM05784, 48 h
  MIC: 0.03 µg/mL (≈ 0.0565 µM)
Candida parapsilosis; DSM11224, 48 h
  MIC: < 0.015 µg/mL
Candida glabrata; DSM11226, 48 h
  MIC: 0.5 µg/mL (≈ 0.941 µM)
Candida glabrata; DSM11950, 48 h
  MIC: 0.25 µg/mL (≈ 0.47 µM)
Plasma corticosterone; 200 mg/kg oral, up to 24 hours
  efficacy at lowering corticosterone, time course (FIG. 3): intermediate between the two enantiomers
Plasma corticosterone; single oral 50 mg/kg
  Corticosteroid Levels (mean ± SEM): 215 ± 20.7 ng/mL
Plasma corticosterone; single oral 100 mg/kg
  Corticosteroid Levels (mean ± SEM): 210 ± 15.5 ng/mL
Plasma corticosterone; single oral 200 mg/kg, 4 h
  Corticosteroid Levels (mean ± SEM), time course: 134 ± 10 ng/mL
Plasma corticosterone; single oral 200 mg/kg
  Corticosteroid Levels (mean ± SEM): 135 ± 13.7 ng/mL
Plasma corticosterone; single oral 200 mg/kg, 8 h
  Corticosteroid Levels (mean ± SEM), time course: 163 ± 11 ng/mL
Plasma corticosterone; single oral 200 mg/kg, 12 h
  Corticosteroid Levels (mean ± SEM), time course: 153 ± 14 ng/mL
Plasma corticosterone; single oral 200 mg/kg, 16 h
  Corticosteroid Levels (mean ± SEM), time course: 132 ± 6 ng/mL
Plasma corticosterone; single oral 200 mg/kg, 20 h
  Corticosteroid Levels (mean ± SEM), time course: 147 ± 17 ng/mL
Plasma corticosterone; single oral 200 mg/kg, 24 h
  Corticosteroid Levels (mean ± SEM), time course: 151 ± 14 ng/mL
Plasma corticosterone; single oral 400 mg/kg
  Corticosteroid Levels (mean ± SEM): 113 ± 6.6 ng/mL
Plasma corticosterone; single oral 600 mg/kg
  Corticosteroid Levels (mean ± SEM): 115 ± 14.3 ng/mL
Candida guilliermondii
  MIC: 0.125 µg/mL (≈ 0.235 µM)
